# Assay results from PMC7279355, “Preparation of Biphenyl-Conjugated Bromotyrosine for Inhibition of PD-1/PD-L1 Immune Checkpoint Interactions” (International Journal of Molecular Sciences, 2020).
# Numbered stars: 1 amine (or outer) side, 2 acyl side, 3 side chain; on linkers, the order of the positions; unused ones are H or OH. Square brackets hold non-standard residues; d marks the D form. Peptide text beside a SMILES is read from it. X1 = Cc1c(COc2ccc(C[C@H](N[*:1])C(=O)[*:2])cc2Br)cccc1-c1ccccc1
# Target: T1, PD-1/PD-L1 interaction (Homo sapiens, UniProt Q9NZQ7)
# T1 construct: purchased PerkinElmer AL356 HV/C/F
# Experiment: AlphaLISA amplified luminescence proximity homogeneous assay, inhibition of PD-1/PD-L1 binding
# Details: AlphaLISA, His-tagged PD-L1 and biotin-conjugated PD-1, 25 °C, 90 min
# Excerpt: To evaluate the binding affinities of the compounds for PD-L1, we used the amplified luminescence proximity homogeneous assay (Alpha) by using the AlphaLISA® assay kit [38]. This assay is based on photoinduced energy transfer between donor and acceptor beads conjugated to PD-1 and PD-L1, respectively (Figure S6).
# In this assay, direct binding of an inhibitor to PD-L1 is detected by photoinduced energy transfer (Figure S6). Biotin-conjugated PD-1 is attached to streptavidin-coated donor beads and histidine (His)-tagged PD-L1 is attached to anti-His-conjugated acceptor beads. Photoexcitation of the donor beads at 680 nm yields singlet oxygen.
# Positive and negative technical controls were included in parallel. Positive controls contained buffer (2 μL) in place of solution 1–10, and negative controls contained only the beads (2 μL each) and buffer (6 μL).
# The reaction samples (10 μM) were placed in a 384-well microplate and photoirradiated at 680 nm from the top. […] IC50 values were estimated from a sigmoidal curve of fluorescence intensity vs. inhibitor concentration using a relative weighting method (1/Y^2 weighting) with GraphPad Prism 8 (GraphPad Software Inc., San Diego, CA, USA).
# T1 sequence (Q9NZQ7 19-238 limits assumed): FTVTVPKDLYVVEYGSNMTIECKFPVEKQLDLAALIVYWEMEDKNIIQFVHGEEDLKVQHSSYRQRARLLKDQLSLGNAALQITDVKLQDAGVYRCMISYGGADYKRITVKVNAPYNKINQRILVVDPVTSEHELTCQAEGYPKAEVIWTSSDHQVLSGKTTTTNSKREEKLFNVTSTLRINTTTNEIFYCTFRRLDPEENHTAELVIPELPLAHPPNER
row,Molecule,IC50 [µM]
1,CSCC[C@H](NC(=O)[C@H](CCCCN)NC(=O)[C@H](CC(N)=O)NC(=O)[C@H](Cc1ccc(OCc2cccc(-c3ccccc3)c2C)c(Br)c1)NC(=O)[C@H](CCCNC(=N)N)NC(=O)[C@H](CCC(=O)O)NC(=O)[C@@H](N)CS)C(=O)O [CERXNKM] (H-CER[X1]NKM-OH),308
2,"Cc1c(CO)cccc1-c1ccccc1 [Compound1, 3-hydroxymethyl-2-methylbiphenyl]",309
3,"CC(C)(C)OC(=O)[C@H](Cc1ccc(O)c(Br)c1)NC(=O)OCC1c2ccccc2-c2ccccc21 [Compound4, (S)-tert-Butyl 2-({[(9H-fluoren-9-yl)methoxy]carbonyl}amino)-3-(3-bromo-4-hydroxyphenyl)propanoate]",1060
4,"Cc1c(COc2ccc(C[C@H](NC(=O)OCC3c4ccccc4-c4ccccc43)C(=O)OC(C)(C)C)cc2Br)cccc1-c1ccccc1 [Compound5, (S)-tert-Butyl 2-({[(9H-fluoren-9-yl)methoxy]carbonyl}amino)-3-{3-bromo-4-[(2-methyl-1,1’-biphenyl-3-yl)methoxy]phenyl}propanoate]",897
5,"Cc1c(COc2ccc(C[C@H](NC(=O)OCC3c4ccccc4-c4ccccc43)C(=O)O)cc2Br)cccc1-c1ccccc1 [Compound6, (S)-2-({[(9H-fluoren-9-yl)methoxy]carbonyl}amino)-3-{3-bromo-4-[(2-methyl-1,1’-biphenyl-3-yl)methoxy]phenyl}propanoic acid]",1420
6,CC[C@H](C)[C@H](NC(=O)[C@H](CC(N)=O)NC(=O)[C@H](CC(N)=O)NC(=O)[C@H](Cc1ccc(OCc2cccc(-c3ccccc3)c2C)c(Br)c1)NC(=O)[C@H](CCCNC(=N)N)NC(=O)[C@H](Cc1c[nH]c2ccccc12)NC(=O)[C@@H](N)Cc1ccccc1)C(=O)O [FWRXNNI] (H-FWR[X1]NNI-OH),312
7,Cc1c(COc2ccc(C[C@H](NC(=O)CN)C(=O)O)cc2Br)cccc1-c1ccccc1 [GX],448
8,Cc1c(COc2ccc(C[C@H](NC(=O)[C@@H](N)CCCNC(=N)N)C(=O)N[C@@H](CC(N)=O)C(=O)O)cc2Br)cccc1-c1ccccc1 [RXN],405
9,Cc1c(COc2ccc(C[C@H](NC(=O)[C@@H](N)Cc3c[nH]c4ccccc34)C(=O)NCC(=O)O)cc2Br)cccc1-c1ccccc1 [WXG],405
10,"Cc1c(COc2ccc(C[C@H](N)C(=O)O)cc2Br)cccc1-c1ccccc1 [X, (S)-2-amino-3-[3-bromo-4-{(2-methyl-1,1′-biphenyl-3-yl)methoxy}phenyl]propanoic acid]",1.5
11,Cc1c(COc2ccc(C[C@H](N)C(=O)N[C@@H](C)C(=O)O)cc2Br)cccc1-c1ccccc1 [XA],22.3
12,Cc1c(COc2ccc(C[C@H](N)C(=O)NCC(=O)NCC(=O)O)cc2Br)cccc1-c1ccccc1 [XGG],6510
13,Cc1c(COc2ccc(C[C@H](N)C(=O)NCC(=O)O)cc2Br)cccc1-c1ccccc1 [XG],2.1
14,Cc1c(COc2ccc(C[C@H](N)C(=O)N[C@@H](CO)C(=O)O)cc2Br)cccc1-c1ccccc1 [XS],2650
15,Cc1c(COc2ccc(C[C@H](N)C(=O)N[C@@H](Cc3c[nH]c4ccccc34)C(=O)O)cc2Br)cccc1-c1ccccc1 [XW],845

# Same assay, conditions: AlphaLISA, positive control
row,Molecule,IC50 [µM]
1,"nivolumab: anti-PD-1 mAb, positive control [reference compound]",0.0051

# Same assay, conditions: X (1.5 μM) vs BMS-8 ([…])
row,Molecule,improvement of IC50 relative to BMS-8
1,"Cc1c(COc2ccc(C[C@H](N)C(=O)O)cc2Br)cccc1-c1ccccc1 [X, (S)-2-amino-3-[3-bromo-4-{(2-methyl-1,1′-biphenyl-3-yl)methoxy}phenyl]propanoic acid]",about five
